Several values for one entry are separate records, joined by “and”; a condition that tells them apart may be missing. Identical values can stand only once. Toxic doses and inconclusive results are not listed.
Tested on: CD2F1 mice, L1210 leukemia ip, survival T/C
Experiment: NCI In Vivo Anticancer Drug Screen. Data for tumor model L1210 Leukemia (intraperitoneal) in CD2F1 (CDF1) mice
Details: higher = longer survival
Outline: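 Transplantable tumor in mice; compound-treated vs vehicle-treated groups. Read-out = treated/control ratio of the measured endpoint.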

[1] = endpoint: mean survival time, dose: 200.0 mg/kg/injection, schedule: Q04DX003 (ip), vehicle: saline
[2] = endpoint: mean survival time, dose: 100.0 mg/kg/injection, schedule: Q04DX003 (ip), vehicle: saline with Tween-80
[3] = endpoint: mean survival time, dose: 200.0 mg/kg/injection, schedule: Q04DX003 (ip), vehicle: saline with Tween-80
[4] = endpoint: mean survival time, dose: 400.0 mg/kg/injection, schedule: Q04DX003 (ip), vehicle: saline with Tween-80
[5] = endpoint: mean survival time, dose: 50.0 mg/kg/injection, schedule: Q01DX009 (ip), vehicle: saline with Tween-80
[6] = endpoint: mean survival time, dose: 100.0 mg/kg/injection, schedule: Q01DX009 (ip), vehicle: saline with Tween-80
[7] = endpoint: mean survival time, dose: 200.0 mg/kg/injection, schedule: Q01DX009 (ip), vehicle: saline with Tween-80
[8] = endpoint: mean survival time, dose: 400.0 mg/kg/injection, schedule: Q01DX009 (ip), vehicle: saline with Tween-80
[9] = endpoint: mean survival time, dose: 25.0 mg/kg/injection, schedule: Q01DX009 (ip), vehicle: saline with Tween-80

O=C[C@@H](CO)O[C@H](C=O)n1cnc2c(=O)[nH]cnc21
T/C (endpoint: mean survival time, dose: 20.0 mg/kg/injection, schedule: Q01DX009 (ip), vehicle: saline): 111 % of control | T/C (endpoint: mean survival time, dose: 40.0 mg/kg/injection, schedule: Q01DX009 (ip), vehicle: saline): 115 % of control | T/C (endpoint: mean survival time, dose: 50.0 mg/kg/injection, schedule: Q04DX003 (ip), vehicle: saline): 114 % of control | T/C (endpoint: mean survival time, dose: 70.0 mg/kg/injection, schedule: Q01DX001 (ip), vehicle: saline): 110 % of control | T/C (endpoint: mean survival time, dose: 80.0 mg/kg/injection, schedule: Q01DX009 (ip), vehicle: saline): 160 % of control | T/C (endpoint: mean survival time, dose: 100.0 mg/kg/injection, schedule: Q01DX007 (ip), vehicle: saline): 156 % of control | T/C (endpoint: mean survival time, dose: 140.0 mg/kg/injection, schedule: Q01DX001 (ip), vehicle: saline): 124 % of control | T/C (endpoint: mean survival time, dose: 160.0 mg/kg/injection, schedule: Q01DX009 (ip), vehicle: saline): 177 % of control and 182 % of control | T/C (endpoint: mean survival time, dose: 200.0 mg/kg/injection, schedule: Q01DX007 (ip), vehicle: saline): 150 % of control | T/C (endpoint: mean survival time, dose: 200.0 mg/kg/injection, schedule: Q01DX009 (ip), vehicle: saline): 287 % of control | T/C (endpoint: mean survival time, dose: 200.0 mg/kg/injection, schedule: Q03DX003 (ip), vehicle: saline): 162 % of control | T/C [1]: 158 % of control | T/C (endpoint: median survival time, dose: 38.9 mg/kg/injection, schedule: Q01DX005 (ip), vehicle: saline): 122 % of control | T/C (endpoint: median survival time, dose: 39.0 mg/kg/injection, schedule: Q01DX009 (ip), vehicle: clinical formulation): 122 % of control | T/C (endpoint: median survival time, dose: 50.0 mg/kg/injection, schedule: Q01DX005 (ip), vehicle: distilled water + Tween-80): 118 % of control | T/C (endpoint: median survival time, dose: 89.0 mg/kg/injection, schedule: Q01DX009 (ip), vehicle: clinical formulation): 173 % of control | T/C (endpoint: median survival time, dose: 89.0 mg/kg/injection, schedule: Q01DX009 (ip), vehicle: sodium bicarbonate): 171 % of control | T/C (endpoint: median survival time, dose: 133.0 mg/kg/injection, schedule: Q01DX009 (ip), vehicle: clinical formulation): 105 % of control | T/C (endpoint: median survival time, dose: 133.0 mg/kg/injection, schedule: Q01DX009 (ip), vehicle: sodium bicarbonate): 163 % of control | T/C (endpoint: median survival time, dose: 180.0 mg/kg/injection, schedule: Q01DX005 (ip), vehicle: saline): 170 % of control | T/C (endpoint: median survival time, dose: 200.0 mg/kg/injection, schedule: Q01DX005 (ip), vehicle: distilled water + Tween-80): 196 % of control | T/C (endpoint: median survival time, dose: 300.0 mg/kg/injection, schedule: Q01DX005 (ip), vehicle: saline): 238 % of control

C=CCc1cc(OC)ccc1OC(C)=O
T/C [2]: 113 % of control | T/C [3]: 97 % of control | T/C [4]: 105 % of control

C=CCCCCCCCCC(=O)Nc1cc2c3c(c1)CCCN3CCC2
T/C [5]: 97 % of control | T/C [6]: 101 % of control | T/C [2]: 93 % of control

O=C(NC(=O)c1ccccc1)NC1=C(Cl)C(=O)c2ccccc2C1=O
T/C (endpoint: mean survival time, dose: 100.0 mg/kg/injection, schedule: Q01DX001 (ip), vehicle: other): 106 % of control | T/C (endpoint: mean survival time, dose: 200.0 mg/kg/injection, schedule: Q01DX001 (ip), vehicle: other): 104 % of control | T/C (endpoint: mean survival time, dose: 400.0 mg/kg/injection, schedule: Q01DX001 (ip), vehicle: other): 109 % of control

COc1cccc(CCNC(=O)CC#N)c1
T/C [6]: 97 % of control | T/C [7]: 98 % of control | T/C [8]: 101 % of control

CCCCCCC(C)c1cc(C)c(O)c(CN(C)C)c1 (stereo not given)
T/C (endpoint: mean survival time, dose: 100.0 mg/kg/injection, schedule: Q04DX003 (ip), vehicle: saline): 91 % of control | T/C [1]: 95 % of control

Brc1ccc2ncc3ccccc3c2c1
T/C (endpoint: mean survival time, dose: 100.0 mg/kg/injection, schedule: Q01DX001 (ip), vehicle: saline): 93 % of control | T/C (endpoint: mean survival time, dose: 200.0 mg/kg/injection, schedule: Q01DX001 (ip), vehicle: saline): 98 % of control | T/C (endpoint: mean survival time, dose: 400.0 mg/kg/injection, schedule: Q01DX001 (ip), vehicle: saline): 96 % of control

COc1cc(OC)c(NC(=O)OCCSc2ccc(Cl)cc2)cc1Cl
T/C [5]: 92 % of control | T/C [6]: 92 % of control | T/C [7]: 92 % of control

[C-]#[O+].[C-]#[O+].[C-]#[O+].[C-]#[O+].[C-]#[O+].[C-]#[O+].[Cr]
T/C [9]: 103 % of control | T/C [5]: 97 % of control and 110 % of control | T/C [6]: 112 % of control

CC(C)(C)C(=O)CC(=O)C(C)(C)C.CC(C)(C)C(=O)CC(=O)C(C)(C)C.CC(C)(C)C(=O)CC(=O)C(C)(C)C.[La]
T/C [2]: 94 % of control | T/C [3]: 101 % of control | T/C [4]: 97 % of control

Cc1c2cnccc2c(C)c2c1c1ccccc1n2CCNCc1ccccc1
T/C [2]: 105 % of control | T/C [3]: 107 % of control

CCOc1ccc2c(c1)C(C)=CC(C)(C)N2
T/C [2]: 95 % of control | T/C [3]: 104 % of control | T/C [4]: 91 % of control

CCOC(=O)C(=CNc1ccc(OC)cc1[N+](=O)[O-])C(=O)OCC
T/C (endpoint: mean survival time, dose: 100.0 mg/kg/injection, schedule: Q01DX005 (ip), vehicle: saline with Tween-80): 103 % of control | T/C [6]: 93 % of control | T/C (endpoint: mean survival time, dose: 200.0 mg/kg/injection, schedule: Q01DX005 (ip), vehicle: saline with Tween-80): 97 % of control | T/C [7]: 89 % of control | T/C (endpoint: mean survival time, dose: 400.0 mg/kg/injection, schedule: Q01DX005 (ip), vehicle: saline with Tween-80): 91 % of control | T/C [8]: 89 % of control

Nc1nnnn1-c1ccc(O)cc1
T/C [2]: 104 % of control | T/C [3]: 98 % of control | T/C [4]: 104 % of control

CCC/C=C/CCOC(=N)C(Cl)(Cl)Cl
T/C [5]: 92 % of control | T/C [6]: 92 % of control | T/C [7]: 88 % of control

CC1(CCOCc2ccccc2)NC(=O)NC1=O (stereo not given)
T/C [6]: 95 % of control | T/C [2]: 97 % of control | T/C [7]: 95 % of control | T/C [3]: 98 % of control | T/C [8]: 98 % of control | T/C [4]: 98 % of control

O=C(Nc1nncs1)c1ccncc1
T/C (endpoint: mean survival time, dose: 12.5 mg/kg/injection, schedule: Q01DX009 (ip), vehicle: saline with Tween-80): 95 % of control and 112 % of control | T/C [9]: 115 % of control and 92 % of control | T/C [5]: 103 % of control | T/C [7]: 123 % of control and 94 % of control | T/C [8]: 110 % of control

Cc1ccc(Cl)cc1N=Cc1ccccc1O
T/C [6]: 98 % of control | T/C (endpoint: mean survival time, dose: 132.0 mg/kg/injection, schedule: Q04DX003 (ip), vehicle: saline with Tween-80): 110 % of control | T/C [7]: 94 % of control | T/C [3]: 102 % of control | T/C (endpoint: mean survival time, dose: 300.0 mg/kg/injection, schedule: Q04DX003 (ip), vehicle: saline with Tween-80): 100 % of control | T/C [8]: 97 % of control

COC(=O)C1=C(O)C(C(=O)OC)C2/C(=[N+](/[O-])O)c3c(cc([N+](=O)[O-])cc3[N+](=O)[O-])C1C2[N+](=O)[O-] (stereo not given)
T/C (endpoint: mean survival time, dose: 100.0 mg/kg/injection, schedule: Q04DX002 (ip), vehicle: saline with Tween-80): 94 % of control | T/C (endpoint: mean survival time, dose: 200.0 mg/kg/injection, schedule: Q04DX002 (ip), vehicle: saline with Tween-80): 105 % of control | T/C (endpoint: mean survival time, dose: 400.0 mg/kg/injection, schedule: Q04DX002 (ip), vehicle: saline with Tween-80): 90 % of control

CN=C([Se])NC
T/C (endpoint: mean survival time, dose: 3.13 mg/kg/injection, schedule: Q01DX005 (ip), vehicle: saline with Tween-80): 108 % of control | T/C (endpoint: mean survival time, dose: 6.25 mg/kg/injection, schedule: Q01DX005 (ip), vehicle: saline with Tween-80): 103 % of control | T/C (endpoint: mean survival time, dose: 12.5 mg/kg/injection, schedule: Q01DX005 (ip), vehicle: saline with Tween-80): 116 % of control | T/C (endpoint: mean survival time, dose: 12.5 mg/kg/injection, schedule: Q04DX002 (ip), vehicle: saline with Tween-80): 102 % of control | T/C (endpoint: mean survival time, dose: 25.0 mg/kg/injection, schedule: Q04DX002 (ip), vehicle: saline with Tween-80): 104 % of control
